Reference: PMC10746543, “Design principles for cyclin K molecular glue degraders” (Nature Chemical Biology, 2023)
Values joined by “and” are separate entries in the source; they are usually repeats but may differ in a detail not shown here. Equal values may be shown once. Read-outs that look alike come from different tables or passages of the source.

What was measured:
HEK293T cells = assay: Drug sensitivity assay (CellTiter-Glo viability) with or without MLN4924 pretreatment; assay type: cell-based, human; conditions: Supplementary Table 2; for EC50: Homo sapiens, HEK-293T, HEK293T viability, 72 h, compound alone, read-out: Cellular assays EC50; for Toxicity rescue: MLN4924-mediated cytotoxicity rescue, 10 µM used where n.d.
How it was run: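 Cas9-expressing HEK293T cells receive either vehicle or 100 nM MLN4924, then compounds 2 h afterwards. After three days, luminescence-based viability is measured and calculated relative to DMSO.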

[1] = test system: cyclin K–eGFP degradation reporter; assay: Cyclin K reporter stability analysis (dual-color cyclin K–eGFP reporter); assay type: cell-based, human
How it was run: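 Readout was the eGFP-to-mCherry geometric-mean ratio by flow cytometry, normalized to three DMSO controls, after 5 h drug exposure. Cells used were HEK293T–Cas9 expressing the dual-colour cyclin K–eGFP degradation reporter.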

CDK12–cyclin K and DDB1 = target: T1, CDK12–cyclin K and DDB1 (Homo sapiens, UniProt Q16531+Q9NYV4, K965R); assay: TR-FRET ternary complex formation assay (compound titration); assay type: binding; conditions: for TR-FRET signal at compound concentration 4.68 nM / TR-FRET signal at compound concentration 21.6 nM / TR-FRET signal at compound concentration 36 nM / TR-FRET signal at compound concentration 79.2001 nM / TR-FRET signal at compound concentration 158.4 nM / TR-FRET signal at compound concentration 309.6 nM / TR-FRET signal at compound concentration 626.401 nM / TR-FRET signal at compound concentration 1252.8 nM / TR-FRET signal at compound concentration 2448 nM / TR-FRET signal at compound concentration 9936.01 nM / TR-FRET signal at compound concentration 20016 nM: raw replicate titration data; for TR-FRET signal at compound concentration 0.468 nM / TR-FRET signal at compound concentration 2.16 nM / TR-FRET signal at compound concentration 3.6 nM / TR-FRET signal at compound concentration 7.92001 nM / TR-FRET signal at compound concentration 15.84 nM / TR-FRET signal at compound concentration 30.96 nM / TR-FRET signal at compound concentration 62.6401 nM / TR-FRET signal at compound concentration 125.28 nM / TR-FRET signal at compound concentration 244.8 nM / TR-FRET signal at compound concentration 993.601 nM / TR-FRET signal at compound concentration 2001.6 nM: raw titration data
T1 construct: His6–CDK12 (a.a. 713–1,052); full-length or beta-propeller B domain deletion (ΔBPB: a.a. 396–705 deleted) constructs of His6–DDB1ΔBPB, StrepII–Avi–DDB1, or His6–Spy–DDB1; made in house; host or cells: Trichoplusia ni High Five insect cells (baculovirus)
T1 sequence (Q9NYV4 713-1052 K965R): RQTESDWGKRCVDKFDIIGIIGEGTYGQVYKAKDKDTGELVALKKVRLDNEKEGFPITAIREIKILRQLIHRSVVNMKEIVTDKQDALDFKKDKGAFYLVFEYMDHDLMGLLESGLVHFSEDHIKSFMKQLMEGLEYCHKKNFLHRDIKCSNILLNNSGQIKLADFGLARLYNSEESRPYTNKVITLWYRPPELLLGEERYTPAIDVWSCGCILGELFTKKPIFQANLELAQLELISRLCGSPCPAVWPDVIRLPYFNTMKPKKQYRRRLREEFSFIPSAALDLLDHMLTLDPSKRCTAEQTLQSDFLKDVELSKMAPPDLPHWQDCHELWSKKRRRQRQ
T1 sequence (O75909 1-267 partner): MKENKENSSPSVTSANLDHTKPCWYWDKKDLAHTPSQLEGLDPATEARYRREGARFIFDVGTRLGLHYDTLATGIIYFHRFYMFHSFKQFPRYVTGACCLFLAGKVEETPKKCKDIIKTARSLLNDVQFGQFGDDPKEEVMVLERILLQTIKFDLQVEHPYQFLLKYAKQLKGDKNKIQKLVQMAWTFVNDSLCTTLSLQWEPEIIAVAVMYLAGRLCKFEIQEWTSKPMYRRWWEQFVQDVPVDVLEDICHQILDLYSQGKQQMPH
T1 sequence (Q16531 whole entry): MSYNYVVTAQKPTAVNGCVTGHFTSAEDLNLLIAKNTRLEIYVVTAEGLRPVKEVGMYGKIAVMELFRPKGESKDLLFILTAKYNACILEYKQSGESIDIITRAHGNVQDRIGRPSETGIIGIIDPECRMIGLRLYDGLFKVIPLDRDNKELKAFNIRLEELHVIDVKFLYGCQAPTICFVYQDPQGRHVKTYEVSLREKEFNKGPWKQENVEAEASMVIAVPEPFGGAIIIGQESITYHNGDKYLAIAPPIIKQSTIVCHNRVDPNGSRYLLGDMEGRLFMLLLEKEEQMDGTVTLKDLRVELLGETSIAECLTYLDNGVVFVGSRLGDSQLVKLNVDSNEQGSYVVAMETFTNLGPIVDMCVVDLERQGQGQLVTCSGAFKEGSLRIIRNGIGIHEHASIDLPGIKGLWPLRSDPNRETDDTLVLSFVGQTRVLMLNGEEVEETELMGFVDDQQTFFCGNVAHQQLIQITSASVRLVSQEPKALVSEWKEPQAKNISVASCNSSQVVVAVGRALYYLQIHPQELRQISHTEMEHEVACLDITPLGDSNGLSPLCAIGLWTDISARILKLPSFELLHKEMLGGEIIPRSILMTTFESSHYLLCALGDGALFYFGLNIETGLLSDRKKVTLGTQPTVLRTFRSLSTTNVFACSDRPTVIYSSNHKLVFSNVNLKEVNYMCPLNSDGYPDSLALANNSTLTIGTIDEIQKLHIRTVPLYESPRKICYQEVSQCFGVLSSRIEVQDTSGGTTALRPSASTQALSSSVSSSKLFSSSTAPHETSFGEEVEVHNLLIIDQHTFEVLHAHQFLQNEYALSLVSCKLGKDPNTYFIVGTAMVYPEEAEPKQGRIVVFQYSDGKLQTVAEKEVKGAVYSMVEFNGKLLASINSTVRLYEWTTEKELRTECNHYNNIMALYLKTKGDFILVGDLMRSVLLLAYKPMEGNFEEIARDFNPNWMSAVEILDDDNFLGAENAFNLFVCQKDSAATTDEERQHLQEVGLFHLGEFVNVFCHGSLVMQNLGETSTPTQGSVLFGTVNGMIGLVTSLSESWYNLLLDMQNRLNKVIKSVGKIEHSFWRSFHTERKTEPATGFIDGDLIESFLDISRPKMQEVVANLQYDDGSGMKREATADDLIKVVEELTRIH
How it was run: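 A time delay of 70 μs preceded acquisition, limiting background fluorescence; the ratio of emission at 520 versus 490 nm gave the TR-FRET value.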

[2] = Supplementary Table 2, HEK293T cycK-eGFP reporter, 5 h, read-out: Cellular assays DC50
[3] = in vitro complex formation, 50 nM CDK12–cyclin K, 100 nM DDB1, text and figures, read-out: TR-FRET EC50
[4] = sheet MOESM7, read-out: log TR-FRET EC50 (converted)
[5] = source data sheet correlations, read-out: DC50

SMILES | EC50 (HEK293T cells) [nM] | Toxicity rescue (HEK293T cells) [%] | DC50 [1, 2] [nM] | TR-FRET signal at compound concentration 4.68 nM (CDK12–cyclin K and DDB1) | TR-FRET signal at compound concentration 21.6 nM (CDK12–cyclin K and DDB1) | TR-FRET signal at compound concentration 36 nM (CDK12–cyclin K and DDB1) | TR-FRET signal at compound concentration 79.2001 nM (CDK12–cyclin K and DDB1) | TR-FRET signal at compound concentration 158.4 nM (CDK12–cyclin K and DDB1) | TR-FRET signal at compound concentration 309.6 nM (CDK12–cyclin K and DDB1) | TR-FRET signal at compound concentration 626.401 nM (CDK12–cyclin K and DDB1) | TR-FRET signal at compound concentration 1252.8 nM (CDK12–cyclin K and DDB1) | TR-FRET signal at compound concentration 2448 nM (CDK12–cyclin K and DDB1) | TR-FRET signal at compound concentration 9936.01 nM (CDK12–cyclin K and DDB1) | TR-FRET signal at compound concentration 20016 nM (CDK12–cyclin K and DDB1) | EC50 (CDK12–cyclin K and DDB1; [3]) [nM] | EC50 (CDK12–cyclin K and DDB1; [4]) [nM] | DC50 [1, 5] [nM] | TR-FRET signal at compound concentration 0.468 nM (CDK12–cyclin K and DDB1) | TR-FRET signal at compound concentration 2.16 nM (CDK12–cyclin K and DDB1) | TR-FRET signal at compound concentration 3.6 nM (CDK12–cyclin K and DDB1) | other results
CC[C@H](CO)Nc1nc(Nc2ccc(-c3ccccn3)cc2)c2ncn(C(C)C)c2n1 [DRF053, reference compound] | 1310 | 387 | > 10000 | 0.2134 and 0.2299 and 0.1361 and 0.1347 | 0.2243 and 0.2471 and 0.1497 and 0.153 | 0.2585 and 0.3171 and 0.1771 and 0.1787 | 0.3449 and 0.4117 and 0.2284 and 0.2341 | 0.4712 and 0.5868 and 0.3097 and 0.3219 | 0.6548 and 0.8142 and 0.4579 and 0.474 | 0.9256 and 1.1545 and 0.6903 and 0.7002 | 1.214 and 1.445 and 0.9334 and 0.9779 | 1.442 and 1.672 and 1.232 and 1.263 | 1.602 and 1.881 and 1.44 and 1.453 | 1.655 and 1.896 and 1.497 and 1.485 | 704 ± 108 | 704 | – | – | – | – | EC50 (CDK12–cyclin K and DDB1; Supplementary Table 2, read-out: TR-FRET EC50 TR-FRET): 704 nM
CC[C@H](CO)Nc1nc(NCc2ccc(-c3ccncc3)cc2)c2ncn(C(C)C)c2n1 [DS44] | 300 | 857 | – | – | – | – | – | – | – | – | – | – | – | – | 36 ± 2 | 35.6 | 62 | 0.2822 and 0.2969 and 0.203 and 0.2011 | 0.3572 and 0.3626 and 0.2614 and 0.2567 | 0.4873 and 0.5297 and 0.3719 and 0.3575 | TR-FRET signal at compound concentration 7.92001 nM (CDK12–cyclin K and DDB1): 0.7272 and 0.8095 and 0.5738 and 0.5707; TR-FRET signal at compound concentration 15.84 nM (CDK12–cyclin K and DDB1): 1.129 and 1.28 and 0.9406 and 0.8919; TR-FRET signal at compound concentration 30.96 nM (CDK12–cyclin K and DDB1): 1.72 and 1.9375 and 1.384 and 1.358; TR-FRET signal at compound concentration 62.6401 nM (CDK12–cyclin K and DDB1): 2.307 and 2.567 and 2.074 and 2.11; TR-FRET signal at compound concentration 125.28 nM (CDK12–cyclin K and DDB1): 2.789 and 3.0284 and 2.71 and 2.759; TR-FRET signal at compound concentration 244.8 nM (CDK12–cyclin K and DDB1): 3 and 3.3475 and 2.848 and 3.078; TR-FRET signal at compound concentration 993.601 nM (CDK12–cyclin K and DDB1): 3.126 and 3.521 and 3.221 and 3.228; TR-FRET signal at compound concentration 2001.6 nM (CDK12–cyclin K and DDB1): 3.1032 and 3.41 and 3.238 and 3.193; EC50 (CDK12–cyclin K and DDB1; source data sheet correlations, read-out: TR-FRET EC50): 35.6 nM
CC[C@@H](CO)Nc1nc(NCc2ccc(-c3ccccn3)cc2)c2ncn(C(C)C)c2n1 [DS28, reference compound] | 221 | 610 | – | – | – | – | – | – | – | – | – | – | – | – | – | – | 27 | 0.2434 and 0.2416 and 0.2052 | 0.3117 and 0.3133 and 0.2621 | 0.4303 and 0.4364 and 0.3629 | TR-FRET signal at compound concentration 7.92001 nM (CDK12–cyclin K and DDB1): 0.6777 and 0.6662 and 0.6266; TR-FRET signal at compound concentration 15.84 nM (CDK12–cyclin K and DDB1): 1.124 and 1.123 and 1.094; TR-FRET signal at compound concentration 30.96 nM (CDK12–cyclin K and DDB1): 2.005 and 1.92 and 1.844; TR-FRET signal at compound concentration 62.6401 nM (CDK12–cyclin K and DDB1): 3.017 and 2.942 and 2.921; TR-FRET signal at compound concentration 125.28 nM (CDK12–cyclin K and DDB1): 3.528 and 3.596 and 3.608; TR-FRET signal at compound concentration 244.8 nM (CDK12–cyclin K and DDB1): 3.609 and 3.755 and 3.8349; TR-FRET signal at compound concentration 993.601 nM (CDK12–cyclin K and DDB1): 3.693 and 3.913 and 3.885; TR-FRET signal at compound concentration 2001.6 nM (CDK12–cyclin K and DDB1): 3.507 and 3.702 and 3.683
COC[C@@H](C)N[C@H]1CC[C@H](Nc2cc(-c3cccc(NCC4(C#N)CCOCC4)n3)c(Cl)cn2)CC1 [NVP-2, reference compound] | 23 | -22 | > 10000 | 0.1362 and 0.1646 | 0.1797 and 0.2051 | 0.2299 and 0.264 | 0.275 and 0.3223 | 0.3283 and 0.3614 | 0.3492 and 0.3941 | 0.3927 and 0.4325 | 0.4009 and 0.4489 | 0.4033 and 0.4482 | 0.3857 and 0.4199 | 0.3623 and 0.3979 | 62 ± 13 | – | – | – | – | – | –
